Experimental data as given in article PMC2784989 (Journal of medicinal chemistry, 2009).

What was measured:
[1] = target: apurinic/apyrimidinic endonuclease (APE1) (Homo sapiens, UniProt P27695); test: APE1 counter-screen gel-based assay; assay type: biochemical; conditions: up to 100 μM
human Top1 = target: T1, human Top1 (Homo sapiens, UniProt P11387); test: Top1 DNA relaxation counter-screen assay; assay type: biochemical; conditions: up to 100 μM
T1 sequence (P11387 1-765): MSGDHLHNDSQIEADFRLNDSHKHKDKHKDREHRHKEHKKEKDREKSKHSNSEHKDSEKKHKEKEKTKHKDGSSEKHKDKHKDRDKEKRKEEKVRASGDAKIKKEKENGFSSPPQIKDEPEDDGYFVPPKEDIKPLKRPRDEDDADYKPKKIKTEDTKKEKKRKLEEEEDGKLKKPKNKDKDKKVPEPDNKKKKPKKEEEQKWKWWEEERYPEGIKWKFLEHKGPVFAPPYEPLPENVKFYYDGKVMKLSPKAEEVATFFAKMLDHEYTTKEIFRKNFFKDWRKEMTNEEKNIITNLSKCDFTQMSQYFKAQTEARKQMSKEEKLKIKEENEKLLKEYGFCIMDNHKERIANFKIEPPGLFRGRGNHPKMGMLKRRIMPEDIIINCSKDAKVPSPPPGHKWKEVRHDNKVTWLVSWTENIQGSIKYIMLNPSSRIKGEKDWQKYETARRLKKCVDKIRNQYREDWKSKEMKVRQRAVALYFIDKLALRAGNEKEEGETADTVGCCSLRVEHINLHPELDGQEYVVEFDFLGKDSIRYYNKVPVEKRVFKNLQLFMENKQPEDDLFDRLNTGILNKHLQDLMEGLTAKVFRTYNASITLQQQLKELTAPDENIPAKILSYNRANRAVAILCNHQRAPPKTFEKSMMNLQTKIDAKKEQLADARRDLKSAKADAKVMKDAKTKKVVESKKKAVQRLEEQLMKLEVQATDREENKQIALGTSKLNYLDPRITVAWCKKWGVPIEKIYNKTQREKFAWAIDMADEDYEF

recombinant Tdp1 [2] = target: T2, recombinant Tdp1 (Homo sapiens, UniProt Q9NUW8); test: Surface plasmon resonance direct binding; conditions: ten successive 2-fold dilutions from 100 μM
[3] = target: Tdp1 H493R (SCAN1 mutant) (Homo sapiens, UniProt Q9NUW8, H493R); test: SCAN1 mutant gel assay of Tdp1-DNA covalent complex formation; assay type: biochemical; conditions: 100 nM H493R; DNA sequencing and protein SDS-PAGE gels
HCT116 cells = test: Cellular studies alone and in combination with CPT; assay type: cell-based; conditions: data not shown
[4] = test system: CPT-induced Top1-DNA cleavage complexes; test: Immunocomplex of enzyme; assay type: cell-based; conditions: data not shown
Tdp1 [5] = conditions: NCI-DTP diversity set screen; ref [31]; cited from earlier work
recombinant Tdp1 [6] = target: T2, recombinant Tdp1; test: Tdp1 gel-based assay; assay type: biochemical; conditions: single-stranded N14Y substrate
Tdp1 [7] = conditions: ref [28], [29]; cited from earlier work

T2 sequence (Q9NUW8 whole entry): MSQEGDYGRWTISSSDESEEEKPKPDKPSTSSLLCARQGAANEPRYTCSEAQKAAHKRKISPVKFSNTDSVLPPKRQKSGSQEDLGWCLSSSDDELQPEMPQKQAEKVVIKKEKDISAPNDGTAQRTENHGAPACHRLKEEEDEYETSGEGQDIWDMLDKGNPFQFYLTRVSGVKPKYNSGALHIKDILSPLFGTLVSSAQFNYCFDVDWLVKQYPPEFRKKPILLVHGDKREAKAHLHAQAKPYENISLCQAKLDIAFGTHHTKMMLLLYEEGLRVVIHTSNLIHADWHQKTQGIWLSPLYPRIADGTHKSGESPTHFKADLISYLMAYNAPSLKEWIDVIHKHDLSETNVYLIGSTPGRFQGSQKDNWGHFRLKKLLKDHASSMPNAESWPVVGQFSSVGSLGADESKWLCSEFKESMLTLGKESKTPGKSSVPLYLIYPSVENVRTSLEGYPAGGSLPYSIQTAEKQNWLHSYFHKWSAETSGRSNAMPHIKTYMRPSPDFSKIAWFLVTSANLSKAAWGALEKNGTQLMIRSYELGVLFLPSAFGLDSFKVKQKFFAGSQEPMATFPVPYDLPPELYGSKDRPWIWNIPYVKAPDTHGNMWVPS
Chain of apurinic/apyrimidinic endonuclease (APE1) (P27695 whole entry): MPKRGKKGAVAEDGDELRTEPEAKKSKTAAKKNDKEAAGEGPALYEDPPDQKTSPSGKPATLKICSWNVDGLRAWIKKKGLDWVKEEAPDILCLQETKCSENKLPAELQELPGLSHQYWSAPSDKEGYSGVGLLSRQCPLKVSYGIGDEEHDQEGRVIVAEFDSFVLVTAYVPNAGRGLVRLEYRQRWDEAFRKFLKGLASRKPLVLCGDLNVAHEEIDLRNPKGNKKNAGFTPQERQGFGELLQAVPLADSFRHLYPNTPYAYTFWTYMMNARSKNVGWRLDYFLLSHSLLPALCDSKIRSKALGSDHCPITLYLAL
Chain of Tdp1 H493R (SCAN1 mutant) (Q9NUW8 whole entry H493R): as the sequence (Q9NUW8 whole entry) above, with H493R counted along it

For `C[C@]12CC[C@H]3[C@@H](CCC4=CC(=O)CC[C@@]43C)[C@@H]1CC[C@@H]2C(=O)COS(=O)(=O)c1ccc(Br)cc1` [compound 1, 4-Pregnen-21-ol-3,20-dione-21-(4-bromobenzenesufonate)], the “inhibition of APE1” value [1] was “No evidence for inhibition”, the “inhibition of human Top1 (DNA relaxation)” value (human Top1) was “No evidence for inhibition” and the “binding to surface-bound Tdp1 (SPR)” value (recombinant Tdp1 [2]) was “direct binding”. For the same compound, the “formation of Tdp1-DNA covalent complexes by H493R mutant” value [3] was “concentration-dependent decrease”, the “effect in combination with camptothecin in HCT116 cells” value (HCT116 cells) was “only an additive effect” and the “activity by itself in HCT116 cells” value (HCT116 cells; up to 25 μM) was “limited activity”. The “enhancement of CPT-induced Top1-DNA cleavage complexes” value [4] was “did not observe an enhancement” and the “inhibitory activity against Tdp1 in high-throughput screen” value (Tdp1 [5]) was “low micromolar concentrations”.
For `C[C@]12CC[C@H]3[C@@H](CCC4=CC(=O)CC[C@@]43C)[C@@H]1CC[C@@H]2C(=O)COS(C)(=O)=O` [compound 7], the “Tdp1 inhibitory activity (in words)” value (recombinant Tdp1 [6]) was “minimally active” and the “binding to surface-bound Tdp1 (SPR)” value (recombinant Tdp1 [2]) was “No interaction”.
In the case of `CC(=O)[C@H]1CC[C@H]2[C@@H]3CCC4=CC(=O)CC[C@]4(C)[C@H]3CC[C@]12C` [progesterone, reference compound], the “Tdp1 inhibitory activity (in words)” value (recombinant Tdp1 [6]) is reported as “weakly active”.
In the case of `[O]=[W](=[O])([O-])[O-]` [tungstate], the “concentration at which Tdp1 is inhibited” value (Tdp1 [7]) is listed as “millimolar concentrations”.
For `[O]=[V]([O-])([O-])[O-]` [vanadate], the “concentration at which Tdp1 is inhibited” value (Tdp1 [7]) is listed as “millimolar concentrations”.
